Experimental data from US20060194837A1, “Tetrahydroisoquinoline compounds” (priority 2004, published 2006).
Read-outs that look alike come from different tables or passages of the source.

Experiments:
human H3 receptor = target: T1, human H3 receptor (Homo sapiens, UniProt Q9Y5N1); experiment: H3 receptor binding (N-[3H]-α-methylhistamine displacement); details: membranes of SK-N-MC cells expressing cloned human H3 receptor, 0.8 nM N-[3H]-α-methylhistamine, 60 min at 25° C.
T1 construct: expressed in transfected cells
T1 sequence (Q9Y5N1 whole entry): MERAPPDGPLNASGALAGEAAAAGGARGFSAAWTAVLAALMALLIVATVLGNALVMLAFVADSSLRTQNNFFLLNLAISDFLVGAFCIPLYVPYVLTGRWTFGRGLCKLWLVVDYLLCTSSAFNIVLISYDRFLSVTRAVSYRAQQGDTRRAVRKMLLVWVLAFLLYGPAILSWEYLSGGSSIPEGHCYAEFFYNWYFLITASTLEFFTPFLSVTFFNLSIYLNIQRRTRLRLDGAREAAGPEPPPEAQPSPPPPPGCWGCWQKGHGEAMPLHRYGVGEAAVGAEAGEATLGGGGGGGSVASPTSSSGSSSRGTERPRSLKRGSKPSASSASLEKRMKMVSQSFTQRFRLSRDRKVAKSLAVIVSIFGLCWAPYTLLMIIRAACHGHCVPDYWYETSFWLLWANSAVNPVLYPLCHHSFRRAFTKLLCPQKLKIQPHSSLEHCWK

Rat SERT = target: T2, Rat SERT (Rattus norvegicus, UniProt P31652); experiment: Rat brain SERT binding ([3H]-citalopram displacement); details: rat brain membranes without cerebellum, 0.6 nM [3H]-citalopram, 60 min at 25° C.
T2 construct: A rat brain without cerebellum (Zivic Laboratories, Inc.—Pittsburgh, Pa.) was homogenized; tissue Zivic Laboratories, Inc; host or cells: rat brain without cerebellum, membranes
T2 sequence (P31652 whole entry): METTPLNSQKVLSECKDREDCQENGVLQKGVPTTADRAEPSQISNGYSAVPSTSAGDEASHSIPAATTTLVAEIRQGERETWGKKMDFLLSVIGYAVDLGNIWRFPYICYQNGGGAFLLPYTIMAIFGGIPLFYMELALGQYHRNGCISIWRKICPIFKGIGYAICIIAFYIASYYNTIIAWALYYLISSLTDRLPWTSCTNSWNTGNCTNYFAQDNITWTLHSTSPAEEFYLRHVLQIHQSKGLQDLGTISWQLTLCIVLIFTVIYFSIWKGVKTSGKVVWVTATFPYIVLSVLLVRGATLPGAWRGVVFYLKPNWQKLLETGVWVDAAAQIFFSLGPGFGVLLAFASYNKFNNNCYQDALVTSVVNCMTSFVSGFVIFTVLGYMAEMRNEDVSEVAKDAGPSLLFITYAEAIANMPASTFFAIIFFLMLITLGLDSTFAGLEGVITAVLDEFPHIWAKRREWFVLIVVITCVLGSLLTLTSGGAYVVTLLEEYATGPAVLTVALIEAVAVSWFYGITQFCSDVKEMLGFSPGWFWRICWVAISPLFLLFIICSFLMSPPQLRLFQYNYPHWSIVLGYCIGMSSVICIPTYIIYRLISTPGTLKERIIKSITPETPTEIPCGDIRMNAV
Procedure: The supernatant was removed and re-centrifuged at 15,000 rpm for 30 min. […] Membranes were incubated with 0.6 nM [^3H]-Citalopram plus/minus test compounds for 60 min at 25° C. and harvested by rapid filtration over GF/C glass fiber filters (pretreated with 0.3% polyethylenimine) followed by four washes with ice-cold buffer.

human SERT = target: T3, human SERT (Homo sapiens, UniProt P31645); experiment: Human SERT binding (3H-citalopram displacement); details: HEK293 membranes expressing human SERT, rt 1 h
T3 construct: expressed in transfected cells; host or cells: HEK293 membranes
T3 sequence (P31645 whole entry): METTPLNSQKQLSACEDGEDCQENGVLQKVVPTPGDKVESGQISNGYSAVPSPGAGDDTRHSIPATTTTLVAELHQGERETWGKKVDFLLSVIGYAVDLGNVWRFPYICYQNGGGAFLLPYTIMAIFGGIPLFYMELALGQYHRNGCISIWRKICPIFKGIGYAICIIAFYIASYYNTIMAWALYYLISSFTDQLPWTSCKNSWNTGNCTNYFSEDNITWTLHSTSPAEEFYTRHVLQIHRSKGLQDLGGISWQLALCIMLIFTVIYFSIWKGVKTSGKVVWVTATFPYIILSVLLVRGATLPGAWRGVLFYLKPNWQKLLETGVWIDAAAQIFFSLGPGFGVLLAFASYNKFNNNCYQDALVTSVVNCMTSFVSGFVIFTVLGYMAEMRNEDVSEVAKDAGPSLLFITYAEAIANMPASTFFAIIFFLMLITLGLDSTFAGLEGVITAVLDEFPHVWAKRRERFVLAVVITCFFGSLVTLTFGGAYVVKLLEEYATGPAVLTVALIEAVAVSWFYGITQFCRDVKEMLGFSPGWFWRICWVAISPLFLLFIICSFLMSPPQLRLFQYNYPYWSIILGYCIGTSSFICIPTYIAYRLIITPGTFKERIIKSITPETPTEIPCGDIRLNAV
Procedure: Homogenized HEK293 (Human Embryonic Kidney) membranes expressing the human SERT were incubated with ^3H-citalopram (SERT) at rt for 1 h in 50 mM Tris, 120 mM NaCl, 5 mM KCl (pH 7.4). […] The membranes were washed and the radioactivity was counted as above.

SMILES	Ki (human H3 receptor) [nM]	Ki (Rat SERT; read-out: Rat SERT Ki) [nM]	Ki (human SERT) [nM]	Ki (Rat SERT; Rat SERT Ki (nM)) [nM]
CCN(CCCOc1ccc2c(c1)CN(C)CC2c1ccc(OC)cc1)CCOC (stereo not drawn) [Example 40, Ethyl-(2-methoxy-ethyl)-{3-[4-(4-methoxy-phenyl)-2-methyl-1,2,3,4-tetrahydro-isoquinolin-7-yloxy]-propyl}-amine]	20	9	8	
CSc1ccc(C2CN(C)Cc3cc(OC4CCN(CCF)CC4)ccc32)cc1 (stereo not drawn) [Example 179, 7-[1-(2-Fluoro-ethyl)-piperidin-4-yloxy]-2-methyl-4-(4-methylsulfanyl-phenyl)-1,2,3,4-tetrahydro-isoquinoline]	5	3	4	
C[C@H]1COCCN1CCCOc1ccc2c(c1)CN(C)CC2c1ccc(C#N)cc1 (stereo partly drawn) [Example 135, 4-{2-Methyl-7-[3-(3S-methyl-morpholin-4-yl)-propoxy]-1,2,3,4-tetrahydro-isoquinolin-4-yl}-benzonitrile]	2	27	15	
COc1ccc(C2CN(C)Cc3cc(OCCCN4C[C@@H](C)O[C@@H](C)C4)ccc32)cc1 (stereo partly drawn) [Example 32, 7-[3-(2,6-Dimethyl-morpholin-4-yl)-propoxy]-4-(4-methoxy-phenyl)-2-methyl-1,2,3,4-tetrahydro-isoquinoline]	21	8	9	
COc1ccc(C2CN(C)Cc3cc(OCC(O)CN4CCCCC4)ccc32)cc1 (stereo not drawn) [Example 42, 1-[4-(4-Methoxy-phenyl)-2-methyl-1,2,3,4-tetrahydro-isoquinolin-7-yloxy]-3-piperidin-1-yl-propan-2-ol]	3	3	8	
COc1ccc(C2CN(C)Cc3cc(OCCCN4CCN(C(=O)C(C)C)CC4)ccc32)cc1 (stereo not drawn) [Example 5, 1-(4-{3-[4-(4-Methoxy-phenyl)-2-methyl-1,2,3,4-tetrahydro-isoquinolin-7-yloxy]-propyl}-piperazin-1-yl)-2-methyl-propan-1-one]	594	27	18	
CCCN1CCC(COc2ccc3c(c2)CN(C)CC3c2ccc(SC)cc2)CC1 (stereo not drawn) [Example 109, 2-Methyl-4-(4-methylsulfanyl-phenyl)-7-(1-propyl-piperidin-4-ylmethoxy)-1,2,3,4-tetrahydro-isoquinoline]	8	10	3	
COc1ccc(C2CN(C)Cc3cc(OCCCN4CC[C@@H](O)C4)ccc32)cc1 (stereo partly drawn) [Example 31, 1-{3-[4-(4-Methoxy-phenyl)-2-methyl-1,2,3,4-tetrahydro-isoquinolin-7-yloxy]-propyl}-(R)-pyrrolidin-3-ol]	2	2	3	
COc1ccc(C2CN(C)Cc3cc(OCCCN4CCCC4C)ccc32)cc1 (stereo not drawn) [Example 35, 4-(4-Methoxy-phenyl)-2-methyl-7-[3-(2-methyl-pyrrolidin-1-yl)-propoxy]-1,2,3,4-tetrahydro-isoquinoline]	1		3	2
COc1ccc(C2CN(C(C)C)Cc3cc(OCCCN4CCCCC4)ccc32)cc1 (stereo not drawn) [Example 68, 2-Isopropyl-4-(4-methoxy-phenyl)-7-(3-piperidin-1-yl-propoxy)-1,2,3,4-tetrahydro-isoquinoline]	1	22	89	
COc1cccc(C2CN(C)Cc3cc(OCC4CCN(C)CC4)ccc32)c1 (stereo not drawn) [Example 92, 4-(3-Methoxy-phenyl)-2-methyl-7-(1-methyl-piperidin-4-ylmethoxy)-1,2,3,4-tetrahydro-isoquinoline]	2	12	9	
COc1ccc(C2CN(C)Cc3cc(OC4CCNCC4)ccc32)cc1 (stereo not drawn) [Example 148, 4-(4-Methoxy-phenyl)-2-methyl-7-(piperidin-4-yloxy)-1,2,3,4-tetrahydro-isoquinoline]	262	3	5	
COc1ccc(C2CN(C(C)(C)C)Cc3cc(OCCCN4CCCCC4)ccc32)cc1 (stereo not drawn) [Example 64, 2-tert-Butyl-4-(4-methoxy-phenyl)-7-(3-piperidin-1-yl-propoxy)-1,2,3,4-tetrahydro-isoquinoline]	1	222	252	
CN1Cc2cc(OCCCN3CCC(F)CC3)ccc2C(c2ccccc2)C1 (stereo not drawn) [Example 124, 7-[3-(4-Fluoro-piperidin-1-yl)-propoxy]-2-methyl-4-phenyl-1,2,3,4-tetrahydro-isoquinoline]	3	13	56	
COc1ccc(C2CN(C)Cc3cc(OCCCN4CCN(C(C)=O)CC4)ccc32)cc1 (stereo not drawn) [Example 2, 1-(4-{3-[4-(4-Methoxy-phenyl)-2-methyl-1,2,3,4-tetrahydro-isoquinolin-7-yloxy]-propyl}-piperazin-1-yl)-ethanone]	70	13	56	
COc1ccc(C2CN(C)Cc3cc(OCCCN4CCN(C(=O)C5CC5)CC4)ccc32)cc1 (stereo not drawn) [Example 7, Cyclopropyl-(4-{3-[4-(4-methoxy-phenyl)-2-methyl-1,2,3,4-tetrahydro-isoquinolin-7-yloxy]-propyl}-piperazin-1-yl)-methanone]	315	14	14	
CN1Cc2cc(OCCCN3CCC(F)CC3)ccc2C(c2cccc(F)c2)C1 (stereo not drawn) [Example 48, 4-(3-Fluoro-phenyl)-7-[3-(4-fluoro-piperidin-1-yl)-propoxy]-2-methyl-1,2,3,4-tetrahydro-isoquinoline]	6	31	118	
CCN1Cc2cc(OCCCN3CCCCC3)ccc2C(c2ccc(OC)cc2)C1 (stereo not drawn) [Example 66, 2-Ethyl-4-(4-methoxy-phenyl)-7-(3-piperidin-1-yl-propoxy)-1,2,3,4-tetrahydro-isoquinoline]	1	5	4	
COc1ccc(C2CN(C)Cc3cc(OC4CCN(CCF)CC4)ccc32)cc1 (stereo not drawn) [Example 152, 7-[1-(2-Fluoro-ethyl)-piperidin-4-yloxy]-4-(4-methoxy-phenyl)-2-methyl-1,2,3,4-tetrahydro-isoquinoline]	5	6	11	

Now from value to compound:

Ki (human H3 receptor) [nM]	Ki (Rat SERT; read-out: Rat SERT Ki) [nM]	Ki (human SERT) [nM]	Ki (Rat SERT; Rat SERT Ki (nM)) [nM]	SMILES
86	18	9		COc1ccc(C2CN(C)Cc3cc(C#CCCN4CCOCC4)ccc32)cc1 (stereo not drawn) [Example 276, 4-(4-Methoxy-phenyl)-2-methyl-7-(4-morpholin-4-yl-but-1-ynyl)-1,2,3,4-tetrahydro-isoquinoline]
22	5	6		CSc1ccc(C2CN(C)Cc3cc(OC4CCN(C)CC4)ccc32)cc1 (stereo not drawn) [Example 243, 2-Methyl-7-(1-methyl-piperidin-4-yloxy)-4-(4-methylsulfanyl-phenyl)-1,2,3,4-tetrahydro-isoquinoline]
2	5	7		CSc1ccc(C2CN(C)Cc3cc(OC4CCN(C5CC5)CC4)ccc32)cc1 (stereo not drawn) [Example 247, 7-(1-Cyclopropyl-piperidin-4-yloxy)-2-methyl-4-(4-methylsulfanyl-phenyl)-1,2,3,4-tetrahydro-isoquinoline]
11	8	11		CCN1CCOC(COc2ccc3c(c2)CN(C)CC3c2ccc(OC)cc2)C1 (mixture of isomers) [Example 257, 7-(4-Ethyl-morpholin-2-ylmethoxy)-4-(4-methoxy-phenyl)-2-methyl-1,2,3,4-tetrahydro-isoquinoline]
315	5	9		COc1ccc(C2CN(C)Cc3cc(C#CCCN4CCN(C(C)C)CC4)ccc32)cc1 (stereo not drawn) [Example 278, 7-[4-(4-Isopropyl-piperazin-1-yl)-but-1-ynyl]-4-(4-methoxy-phenyl)-2-methyl-1,2,3,4-tetrahydro-isoquinoline]
30	30	18		CN1Cc2cc(OCCCN3CCCCC3)ccc2C(c2ccc(OC(F)(F)F)cc2)C1 (stereo not drawn) [Example 222, 2-Methyl-7-(3-piperidin-1-yl-propoxy)-4-(4-trifluoromethoxy-phenyl)-1,2,3,4-tetrahydro-isoquinoline]
25	6	17		COc1ccc(C2CN(C)Cc3cc(CCCCN4CCSCC4)ccc32)cc1 (stereo not drawn) [Example 282, 4-(4-Methoxy-phenyl)-2-methyl-7-(4-thiomorpholin-4-yl-butyl)-1,2,3,4-tetrahydro-isoquinoline]
2	10	5		COc1ccc(C2CN(C)Cc3cc(OCCCN4CCN(c5ccncc5)CC4)ccc32)cc1 (stereo not drawn) [Example 204, 4-(4-Methoxy-phenyl)-2-methyl-7-[3-(4-pyridin-4-yl-piperazin-1-yl)-propoxy]-1,2,3,4-tetrahydro-isoquinoline]
3	8	34		CN1Cc2cc(OCCCN3CCC(F)CC3)ccc2C(c2ccc(Sc3ncc[nH]3)nc2)C1 (stereo not drawn) [Example 195, 7-[3-(4-Fluoro-piperidin-1-yl)-propoxy]-4-[6-(1H-imidazol-2-ylsulfanyl)-pyridin-3-yl]-2-methyl-1,2,3,4-tetrahydro-isoquinoline]
